The text below walks through data of PMC3152585 (Dental materials : official publication of the Academy of …, 2011).

Data set [1] concerns matrix-bound endogenous MMPs of dentin. Description: Loss of dry mass of demineralized dentin beams over 30 days. The format is biochemical, human. Conditions: for % Inhibition (loss of dry mass): vs buffer control; for Loss of dry mass (%): mean ± SEM, n=10, buffer control -21.02.
The nature of data set [2]: physchem. Conditions: aqueous buffer.
Data set [3] has as its target recombinant human MMP-9 (rhMMP-9) (Homo sapiens, UniProt P14780). As to the kind of experiment: Sensolyte Generic MMP colorimetric assay with soluble rhMMP-9. Conditions: for % Inhibition of soluble rhMMP-9: alcohol 4.28 M; for % Inhibition of soluble rhMMP-9 / IC50 (moles/L) for rhMMP-9: mean ± SEM, n=5; for IC50 (moles/L) for rhMMP-9: from regression of percent inhibition vs alcohol concentration.

Data set [4] deals with MMP-2. Conditions: 5 wt% monomeric HEMA, PAGE gels; cited from earlier work.
In data set [5] the test system is matrix-bound endogenous MMPs of dentin. Description: Solubilization of collagen peptides. Conditions: 30 days, vs buffer control. Format: biochemical, human.
The mark [6] stands for this setting: read-out: % Inhibition of soluble rhMMP-9.

Values after ≈ are worked out from the molar mass of the structure shown. Values joined by “and” are separate entries in the source; they are usually repeats but may differ in a detail not shown here. Equal values may be shown once. Marks after values point to notes of the source that are not given here.

For orientation: solubility means the concentration that dissolves in the medium under given conditions. By IC50 is commonly meant the concentration at which inhibition is half-maximal. By inhibition is commonly meant the change of the read-out against control, counted positive when it falls.

recombinant human MMP-9 (rhMMP-9), sequence (P14780 107-707 limits assumed): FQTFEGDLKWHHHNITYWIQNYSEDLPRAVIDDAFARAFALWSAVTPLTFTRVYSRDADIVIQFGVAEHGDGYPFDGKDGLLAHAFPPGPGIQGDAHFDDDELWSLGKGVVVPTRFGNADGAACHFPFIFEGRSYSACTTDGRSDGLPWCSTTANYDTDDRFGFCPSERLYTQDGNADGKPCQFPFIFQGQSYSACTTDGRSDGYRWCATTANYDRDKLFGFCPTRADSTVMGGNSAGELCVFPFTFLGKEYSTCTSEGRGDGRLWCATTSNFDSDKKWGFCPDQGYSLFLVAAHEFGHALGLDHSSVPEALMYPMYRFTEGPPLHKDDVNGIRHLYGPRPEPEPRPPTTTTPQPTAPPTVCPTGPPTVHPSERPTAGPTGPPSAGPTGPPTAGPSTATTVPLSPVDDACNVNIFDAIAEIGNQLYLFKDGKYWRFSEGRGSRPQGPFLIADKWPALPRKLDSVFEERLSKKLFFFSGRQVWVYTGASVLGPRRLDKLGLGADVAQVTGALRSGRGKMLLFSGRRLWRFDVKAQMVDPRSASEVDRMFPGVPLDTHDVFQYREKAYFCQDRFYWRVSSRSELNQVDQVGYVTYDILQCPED

On to `C=C(C)C(=O)OCCO` [HEMA, 2-hydroxyethylmethacrylate], for which the results for the “% Inhibition (loss of dry mass)” value in data set [1] (0.86 M), in data set [1] ([…]) and in data set [1] (alcohol 4.28 M) were 80.7%, 79.1% and 80.8%, respectively. The solubility in data set [2] is 4280 mM (≈ 557 mg/mL). In data set [3], the 50% inhibitory concentration (IC50) was found to be 100 ± 90 mM. Also, the “Inhibition of rhMMP-9” value in data set [3] (2.2 vol% HEMA, data not shown) turned out to be 98%. Moreover, the “Inhibition of MMP-9 relative to the same concentration of ethanol” value in data set [3] (compared to ethanol) was “nineteen times more”. Moreover, the “Inhibition of MMP-2” value in data set [4] is reported as “about 80%”. In addition, the “% Inhibition (solubilization of HYP)” value was 88.1% in data set [5] (0.86 M), 83.6% in data set [5] ([…]) and 85.6% in data set [5] (alcohol 4.28 M).

Regarding `CCC(C)O` (stereo not drawn) [2-butanol], the “% Inhibition (loss of dry mass)” value in data set [1] (alcohol […]) is recorded as 80.2%. Moreover, in data set [3], the “% Inhibition of soluble rhMMP-9” value came out at 78.7 ± 0.94%^F and the “IC50 (moles/L) for rhMMP-9” value was 0.5 ± 0.04%^b moles/L. Moreover, in data set [5] (alcohol […]), the “% Inhibition (solubilization of HYP)” value was 82.9%.

Consider `CC(C)O` [2-propanol], for which, in data set [3], the “% Inhibition of soluble rhMMP-9” value is 52.7 ± 0.18%^D and the “IC50 (moles/L) for rhMMP-9” value was determined as 4.4 ± 0.13%^e moles/L.

For the compound `CCCCCCC(C)O` (stereo not drawn) [2-octanol], in data set [3], the “IC50 (moles/L) for rhMMP-9” value is 2.7 ± 0.18%^d moles/L. Besides, the inhibition at 170000 µM in data set [3] (setting [6]) is 21.5 ± 0.63%.

Turning to `CCCCC(O)CCC` (stereo not drawn) [4-octanol], the “IC50 (moles/L) for rhMMP-9” value in data set [3] is 1.1 ± 0.04%^c moles/L. Besides, the inhibition at 170000 µM in data set [3] (setting [6]) was found to be 17.7 ± 0.27%.

Turning to `OCCCO` [1,3-propanediol], the “Loss of dry mass (%)” value in data set [1] (alcohol 4.28 M) is given as -3.22 ± 0.31% (10)^A.

Turning to `CCCCC(O)CC` (stereo not drawn) [3-heptanol], the “IC50 (moles/L) for rhMMP-9” value in data set [3] was determined as 0.5 ± 0.04%^b moles/L. Moreover, the inhibition at 170000 µM in data set [3] (setting [6]) came out at 17.1 ± 0.54%.

On to `CCCC(O)CC` (stereo not drawn) [3-hexanol], for which the “IC50 (moles/L) for rhMMP-9” value in data set [3] is reported as 0.4 ± 0.04%^b moles/L. For the same compound, the inhibition at 170000 µM in data set [3] (setting [6]) came to 35.1 ± 1.16%.

`CCO` [ethanol]: in data set [3], the “% Inhibition of soluble rhMMP-9” value was 14.3 ± 2.06%^A and the “IC50 (moles/L) for rhMMP-9” value is on record as 19.6 ± 0.36%^a moles/L.

Turning to `CC(C)(C)O` [tert-butanol], in data set [1] (alcohol 4.28 M), the “Loss of dry mass (%)” value is on record as -3.52 ± 0.28% (10)^A and the “% Inhibition (loss of dry mass)” value was found to be 83.3%.

As to `CCCCCCO` [1-hexanol], in data set [3] (setting [6]), the inhibition at 170000 µM was 28.3 ± 0.4%.

`CCCCCO` [1-pentanol]: the inhibition at 860000 µM in data set [3] (setting [6]) turned out to be 28.5 ± 0.54%.

`CCCCCCCCO` [1-octanol]: in data set [3], the “IC50 (moles/L) for rhMMP-9” value was 0.3 ± 0.22%^b moles/L. Besides, the inhibition at 170000 µM in data set [3] (setting [6]) worked out at 25.4 ± 1.21%.

For `CCCO` [1-propanol], the “% Inhibition (loss of dry mass)” value in data set [1] (alcohol 4.28 M) is 80.2%. Further, in data set [3], the “% Inhibition of soluble rhMMP-9” value came to 79.7 ± 0.18%^F; the “IC50 (moles/L) for rhMMP-9” value is 2.7 moles/L and 2.7 ± 0.13%^d moles/L. For the same compound, the “% Inhibition (solubilization of HYP)” value in data set [5] (alcohol 4.28 M) stood at 78.2%.

With `CCCCCC(C)O` (stereo not drawn) [2-heptanol], the “IC50 (moles/L) for rhMMP-9” value in data set [3] is given as 3.0 ± 0.18%^d moles/L. The inhibition at 170000 µM in data set [3] (setting [6]) worked out at 13.7 ± 2.33%.

With `CCCCC(C)O` (stereo not drawn) [2-hexanol], the “IC50 (moles/L) for rhMMP-9” value in data set [3] came out at 1.6 ± 0.09%^c moles/L. Moreover, the inhibition at 170000 µM in data set [3] (setting [6]) was determined as 13.2 ± 0.67%.
